{"source": "patent US8629173B2", "about": "“Solid forms comprising (+)-2-[1-(3-ethoxy-4-methoxyphenyl)-2-methylsulfonylethyl]-4-acetylaminoisoindoline-1,3-dione, compositions thereof, and uses thereof” (Celgene Corporation, priority 2002, dated 2014)", "key": {"LPS-induced serum TNF-α": {"system": "LPS-induced serum TNF-α", "test": "Mouse LPS-induced serum TNF-α inhibition", "assay_type": "in vivo", "conditions": "po", "procedure": "Compounds were tested in this animal model according to previously described methods (Corral et al., 1996, Mol. Med., 2:506-515). Mouse LPS-induced serum TNF-α inhibition (ED50, mg/kg, p.o.)=0.05 for Compound A."}, "[1]": {"system": "LPS-induced TNF-α production from human PBMC", "test": "LPS-induced TNF-α production from human PBMC", "assay_type": "cell-based", "conditions": "LPS 100 ng/ml, 18-20 hours", "procedure": "Lipopolysaccharide (LPS) is an endotoxin produced by gram-negative bacteria such as E. coli which induces production of many pro-inflammatory cytokines, including TNF-α. In peripheral blood mononuclear cells (PBMC), the TNF-α produced in response to LPS is derived from monocytes, which comprise approximately 5-20% of the total PBMC. Compounds were tested for the ability to inhibit LPS-induced TNF-α production from human PBMC as previously described (Muller et al., 1996, J. Med. Chem., 39:3238). PBMC from normal donors were obtained by Ficoll Hypaque (Pharmacia, Piscataway, N.J., USA) density centrifugation. Cells were cultured in RPMI (Life Technologies, Grand Island, N.Y., USA) supplemented with 10% AB±human serum (Gemini Bio-products, Woodland, Calif., USA), 2 mM L-glutamine, 100 U/ml penicillin, and 100 μg/ml streptomycin (Life Technologies).\nPBMC (2×10^5 cells) were plated in 96-well flat-bottom Costar tissue culture plates (Corning, N.Y., USA) in triplicate. Cells were stimulated with LPS (Sigma, St. Louis, Mo., USA) at 100 ng/ml in the absence or presence of compounds. Compounds (Celgene Corp., Warren, N.J., USA) were dissolved in DMSO (Sigma) and further dilutions were done in culture medium immediately before use. The final DMSO concentration in all samples was 0.25%. Compounds were added to cells one hour before LPS stimulation. […]"}, "PDE4 (from U937 cells)": {"system": "PDE4 (from U937 cells)", "test": "PDE4 (U937 cell-derived) enzyme assay", "assay_type": "biochemical, human", "conditions": "1 μM cAMP"}, "bovine PDE1": {"system": "bovine PDE1", "test": "PDE1 enzyme assay", "assay_type": "biochemical"}, "human PDE2": {"target": "human PDE2 (Homo sapiens, UniProt O00408)", "sequence (O00408 whole entry)": "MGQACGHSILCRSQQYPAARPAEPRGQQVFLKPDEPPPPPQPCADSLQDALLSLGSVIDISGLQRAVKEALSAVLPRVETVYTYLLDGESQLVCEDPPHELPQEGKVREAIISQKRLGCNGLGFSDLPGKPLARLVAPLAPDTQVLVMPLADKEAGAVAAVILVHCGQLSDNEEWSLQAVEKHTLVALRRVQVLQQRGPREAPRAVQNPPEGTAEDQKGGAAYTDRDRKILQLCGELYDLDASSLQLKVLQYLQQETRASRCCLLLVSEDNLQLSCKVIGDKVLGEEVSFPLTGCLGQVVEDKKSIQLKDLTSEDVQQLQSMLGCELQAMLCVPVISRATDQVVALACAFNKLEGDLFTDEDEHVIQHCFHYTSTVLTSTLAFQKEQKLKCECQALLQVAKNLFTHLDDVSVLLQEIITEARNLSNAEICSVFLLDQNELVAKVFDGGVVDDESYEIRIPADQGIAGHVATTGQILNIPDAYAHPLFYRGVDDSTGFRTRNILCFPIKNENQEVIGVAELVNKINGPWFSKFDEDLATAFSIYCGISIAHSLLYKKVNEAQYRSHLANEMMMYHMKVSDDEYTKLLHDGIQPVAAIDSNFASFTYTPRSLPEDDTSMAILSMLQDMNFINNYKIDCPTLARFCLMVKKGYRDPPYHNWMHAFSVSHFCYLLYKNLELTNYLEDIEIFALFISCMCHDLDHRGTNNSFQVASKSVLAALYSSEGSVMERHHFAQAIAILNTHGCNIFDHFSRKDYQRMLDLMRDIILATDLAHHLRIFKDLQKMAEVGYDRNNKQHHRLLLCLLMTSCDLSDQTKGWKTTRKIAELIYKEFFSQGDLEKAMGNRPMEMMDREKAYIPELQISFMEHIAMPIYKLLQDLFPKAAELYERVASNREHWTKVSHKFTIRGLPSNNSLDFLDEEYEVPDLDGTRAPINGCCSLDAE", "test": "PDE2 enzyme assay", "assay_type": "biochemical"}, "[2]": {"target": "PDE5 from human platelets (Homo sapiens, UniProt O76074)", "test": "PDE5 enzyme assay", "assay_type": "biochemical"}, "[3]": {"target": "PDE7 purified from Hut78 human T cells (Homo sapiens, UniProt Q13946)", "sequence (Q13946 whole entry)": "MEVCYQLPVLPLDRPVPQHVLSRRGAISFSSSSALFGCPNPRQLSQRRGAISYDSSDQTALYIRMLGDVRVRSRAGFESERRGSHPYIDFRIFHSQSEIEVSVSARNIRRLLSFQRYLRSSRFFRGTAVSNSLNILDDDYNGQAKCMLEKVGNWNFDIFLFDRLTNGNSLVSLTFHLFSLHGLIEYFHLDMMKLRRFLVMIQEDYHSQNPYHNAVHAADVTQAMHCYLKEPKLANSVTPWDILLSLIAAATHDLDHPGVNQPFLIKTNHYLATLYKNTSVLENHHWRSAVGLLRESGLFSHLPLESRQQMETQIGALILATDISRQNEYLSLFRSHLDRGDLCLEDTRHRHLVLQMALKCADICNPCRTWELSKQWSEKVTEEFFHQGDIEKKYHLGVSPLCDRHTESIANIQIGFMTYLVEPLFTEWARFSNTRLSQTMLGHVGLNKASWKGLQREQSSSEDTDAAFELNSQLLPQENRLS", "test": "PDE7 enzyme assay", "assay_type": "biochemical", "conditions": "10 nM cAMP", "procedure": "PDE7 is a cAMP-selective PDE expressed mainly in T cells and in skeletal muscle. T cell-derived cytokines such as IL-2 and IFN-γ are potentially regulatable via PDE7 inhibition. […] Compounds were tested against the PDE7 preparation in the presence of 10 nM cAMP as described for PDE4 in Table 1."}, "[4]": {"system": "Zymosan-induced IL-8 production in human neutrophils", "test": "Zymosan-induced IL-8 production", "assay_type": "cell-based", "conditions": "Neutrophil, 18 hours", "procedure": "Zymosan A, or the heat-killed yeast Saccharomyces cerevisiae, binds to the adhesion molecule Mac-1 on the neutrophil surface and triggers phagocytosis, cell activation and IL-8 production. Zymosan-induced IL-8 production was measured as previously described (Au et al., 1998, Brit. J. Pharm., 123:1260-1266) with the following modifications. Human neutrophils were purified as described above, plated in 96-well tissue culture plates at 3×10^5 cells/well in complete medium, treated with compounds at 10, 2, 0.4, 0.08, 0.016, 0.0032, 0.00064, and 0 μM in duplicate in a final DMSO concentration of 0.1% for 1 hour at 37° C. 5% CO2. Neutrophils were then stimulated with unopsonized, boiled Zymosan A (Sigma) at 2.5×10^5 particles/well for 18 hours. Supernatants were harvested and tested for IL-8 by ELISA (R&D Systems)."}, "[5]": {"system": "CD11b expression on neutrophils", "test": "fMLF-induced CD11b expression on neutrophils", "assay_type": "cell-based", "conditions": "Neutrophil; human neutrophils, 30 nM fMLF", "procedure": "CD18/CD11b (Mac-1) expression on neutrophils was measured as previously described (Derian et al., 1995, J. Immunol., 154:308-3 17) with the following modifications. Neutrophils were isolated as described above, then resuspended in complete medium at 1×10^6 cells/ml, pretreated with compounds at 10, 1, 0.1, 0.01, and 0 μM in duplicate at a final DMSO concentration of 0.1% for 10 minutes at 37° C. 5% CO2. Cells were then stimulated with 30 nM fMLF for 30 minutes and then chilled to 4° C. Cells were treated with rabbit IgG (Jackson ImmunoResearch Labs, West Grove, Pa., USA) (10 μg/1×10^6 cells) to block Fc receptors, stained with CD18-FITC and CD11b-PE (Becton Dickinson), and analyzed by flow cytometry on a FACSCalibur. CD18/CD11b expression (mean fluorescence) in the absence of stimulation was subtracted from all samples to obtain inhibition curves and calculate IC50 values."}, "[6]": {"system": "neutrophil adhesion to HUVEC", "test": "fMLF-induced adhesion to HUVEC", "assay_type": "cell-based", "conditions": "human neutrophils, 500 nM fMLF", "procedure": "Human umbilical vein endothelial cells (HUVEC) were used as a substrate for neutrophil adhesion as previously described (Derian et al., 1995, J. Immunol., 154:308-317) with the following modifications. HUVEC cells were obtained from Anthrogenesis (Cedar Knolls, N.J., USA), and neutrophils were not treated with cytochalasin B. Cells were treated with compounds at 10, 1, 0.1, 0.01, 0.001, and 0 μM in a final DMSO concentration of 0.1% in duplicate for 10 minutes, stimulated with 500 nM fMLF for 30 minutes, and washed twice with PBS before measuring fluorescence on an FLX800 plate reader (Bio-Tek Instruments, Winooski, Vt., USA)."}}}
{"smiles": "CCOc1cc(C(CS(C)(=O)=O)N2C(=O)c3cccc(NC(C)=O)c3C2=O)ccc1OC", "note": "(single isomer, unassigned; (+)) [Compound A, (+)-2-[1-(3-ethoxy-4-methoxyphenyl)-2-methylsulfonylethyl]-4-acetylaminoisoindoline-1,3-dione]", "values": [{"measurement": "ED50", "setting": "LPS-induced serum TNF-α", "result": 0.05, "unit": "mg/kg"}, {"measurement": "IC50", "setting": "[1]", "result": 77, "unit": "nM"}, {"measurement": "IC50", "setting": "PDE4 (from U937 cells)", "result": 73.5, "unit": "nM"}, {"measurement": "PDE1 (% inhib at 10 μM)", "setting": "bovine PDE1; 10 μM", "result": 23, "unit": "%"}, {"measurement": "PDE Specificity Ratio PDE4/PDE1", "setting": "bovine PDE1; from Table 1 data", "result": ">500", "unit": "fold"}, {"measurement": "PDE Specificity Ratio PDE4/PDE2", "setting": "human PDE2; from Table 1 data", "result": ">10000", "unit": "fold"}, {"measurement": "inhibition at 10 µM", "setting": "human PDE2; read-out: PDE2 (% inhib at 10 μM)", "result": 6, "unit": "%"}, {"measurement": "PDE Specificity Ratio PDE4/PDE5", "setting": "[2]; from Table 1 data", "result": ">30000", "unit": "fold"}, {"measurement": "inhibition at 10 µM", "setting": "[2]; read-out: PDE5 (% inhib at 10 μM)", "result": 3, "unit": "%"}, {"measurement": "IC50", "setting": "[3]", "result": 20500, "unit": "nM"}, {"measurement": "IC50", "setting": "[4]", "result": 94, "unit": "nM"}, {"measurement": "IC50", "setting": "[5]", "result": 74, "unit": "nM"}, {"measurement": "IC50", "setting": "[6]", "result": 150, "unit": "nM"}]}
